Assay results published in US20120178124A1, “STEROL SIDE CHAIN-CLEAVING ENZYME PROTEIN AND USE THEREOF” (MITSUBISHI CHEMICAL CORPORATION, priority 2009, published 2012).

T1: CYP11A (Homo sapiens, UniProt P05108)
T1 construct: A 1.45-kb CYP11A1 gene fragment amplified as a result of the above-described reaction; expressed in transfected cells; host or cells: Escherichia coli BL21(DE3), plasmid pCYP11A-ARX (strain BL21CYP11)
T1 sequence (P05108 40-521): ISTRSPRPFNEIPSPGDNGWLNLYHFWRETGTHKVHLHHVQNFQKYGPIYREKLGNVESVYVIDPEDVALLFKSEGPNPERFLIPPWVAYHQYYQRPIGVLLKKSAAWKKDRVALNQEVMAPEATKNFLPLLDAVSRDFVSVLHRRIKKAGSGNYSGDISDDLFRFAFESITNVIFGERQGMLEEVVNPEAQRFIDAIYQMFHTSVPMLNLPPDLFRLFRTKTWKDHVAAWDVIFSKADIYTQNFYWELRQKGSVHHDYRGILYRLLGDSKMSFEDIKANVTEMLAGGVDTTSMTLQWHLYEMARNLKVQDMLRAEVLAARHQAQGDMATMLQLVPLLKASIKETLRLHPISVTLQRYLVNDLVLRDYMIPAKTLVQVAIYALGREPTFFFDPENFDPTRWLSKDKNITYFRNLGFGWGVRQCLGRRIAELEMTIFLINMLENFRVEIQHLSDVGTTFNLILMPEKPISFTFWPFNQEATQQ

B1: Novosphingobium aromaticivorans ATCC 700278 P450scc CYP204A1, wild type, SEQ ID NO: 23 (Novosphingobium aromaticivorans DSM 12444) (protein)
chain: MARAATAAGNGLPLLDGGVPLLGHLAQFFRDPVSVLKRGYRSKGRLFAMNFMGQRMNVMLGPEHNRFFFEETDKLLSIRESMPFFLKMFSPEFYSFAEMDEYLRQRSIIMPRFKAASMKQYVPVMVEESLNLVERLGEEGEFDLIPTLGPVVMDIAAHSFMGREFHEKLGHEFFELFRDFSGGMEFVLPLWLPTPKMVKSQRAKRKLHAILQSWIDKRRAAPLDPPDFFQTMIETKYPDGRPVPDEIIRHLILLLVWAGHETTAGQVSWALADLLQNPDYQKVLRGEISSLLGGSDGRDLGWEQAVAMEKMDLALRETERLHPVAYMLSRKARADIERDGYVIRKGEFVLLAPSVSHRMEETFRNPDAYDPERFNPANPDAQIESNSLIGFGGGVHRCAGVNFARMEMKVLVAILLQNFDMELMDEVRPIAGASTYWPAQPCRVRYRRRKLDGSEAGADMAALARAAGCPAHT

Legend:
CYPSS204A = test: Conversion reaction of substrates by Escherichia coli expression strain BP215; assay type: cell-based, Sphingomonas subterranea NBRC 16086; conditions: strain BP215, 28° C., 5 hours; for Conversion rate: to progesterone, pregnenolone or 7-dehydropregnenolone
Experimental: The temperature conditions applied during the PCR were 95° C./5 min, 30 cycles of (98° C./30 sec, 60° C./30 sec, and 68° C./2 min), and 68° C./10 min.
Analysis conditions: Using Chromolith speed rod RP18e (50×4.6 mm) column, 50%→100% CH3CN gradient (0 to 3 min) and 100% CH3CN (3 to 8 min) were used as a mobile phase, and detection was carried out at a flow rate of 2 ml/min using CAD™ (Charged Aerosol Detection) and MS.

CYP204A1 = conditions: for Conversion rate: strain BP172, same reaction as Example 6 (28° C., 5 hours)
Experimental: Novosphingobium aromaticivorans (ATCC 700278) was inoculated into an L medium, and it was then cultured at 30° C. for 2 days. Thereafter, genomic DNA was extracted from the cell mass obtained in the same manner as that of Example 1. A fragment comprising a CYPSS204A1 gene and a ferredoxin gene located downstream thereof was amplified from the above-described genomic DNA by using a primer CYP-5F (SEQ ID NO: 9) and a primer CYP-6R (SEQ ID NO: 10) and also using La Taq polymerase (manufactured by Takara Bio INC.). The temperature conditions applied during this operation were 94° C./3 min, 30 cycles of (98° C./20 sec, 63° C./30 sec, and 68° C./2 min), and 72° C./5 min.
Escherichia coli BL21(DE3) was transformed with this plasmid, and the obtained cell strain was named as BP172.
(§1) The Escherichia coli expression strain BP215 was inoculated into 2 ml of an M9 mix medium (Na2HPO4: 0.68%, KH2PO4: 0.3%, NaCl: 0.05%, NH4C;: 0.01%, Casamino acid: 1%, D-Glucose: 0.4%, CaCl2: 0.1 mM, MgCl2: 1 mM, Thiamine: 0.002%, FeSO4: 0.1 mM, Carbenicillin: 0.005%), and it was then subjected to shaking culture at 30° C. for 17 hours, so as to obtain pre-culture solution. 0.25 ml of this pre-culture solution was inoculated into 25 ml of the main culture medium (Na2HPO4: 0.68%, KH2PO4: 0.3%, NaCl: 0.05%, NH4Cl: 0.01%, Casamino acid: 1%, CaCl2: 0.1 mM, MgCl2: 1 mM, Thiamine: 0.002%, FeSO4: 0.1 mM, Carbenicillin: 0.005%, Overnight Express™ solution: 7%, 5-Aminolevlic acid: 0.008%) using Overnight Express™ Autoinduction System (Novagen Cat. No. 71300-4), and it was then subjected to shaking culture at 25° C. for 24 hours. 5 ml of the obtained main culture solution was centrifuged (3500 rpm, 10 minutes) to obtain cell mass, and 1 ml of CV2 buffer (50 mM (pH) potassium phosphate buffer containing glycerol: 2%, carbenicillin: 0.005%, and isopropyl β-D-1-thiogalactopyranoside: 0.1 mM) was added to the obtained cell mass. Thereafter, 0.01 ml of the methanol solution of 1% 4-cholesten-3-one and 0.02 ml of an aqueous solution of 25% methyl-β-cyclodextrin were added to the mixed solution, and the obtained mixture was then shaken at 28° C. for 5 hours for the reaction. After completion of the reaction, 4 ml of methanol was added to the reaction solution, and they were then fully mixed. The obtained mixture was centrifuged, and the upper layer was then analyzed by HPLC.
As substrates, 4-cholesten-3-one, cholesterol, 7-dehydrocholesterol, ergosterol, 13-sitosterol, stigmasterol, campesterol, desmosterol, (20S)-20-hydroxycholest-4-en-3-one, (22R)-22-hydroxycholest-4-en-3-one, (20R,22R)-20,22-dihydroxycholest-4-en-3-one, and (20R,22S)-20,22-dihydroxycholest-4-en-3-one were used. Each substrate was subjected to the same reaction as that of Example 6, separately, and the generated product was then analyzed by HPLC.

CYP11A = target: T1, CYP11A; test: Conversion reaction of substrates by CYP11A-expressing Escherichia coli; assay type: cell-based; conditions: for Conversion rate: same reaction as Example 6 (28° C., 5 hours)
Experimental: as §1
A commercially available human testis cDNA (Origene Technologies, Inc.) was used as a template, and a CYP11A1 gene was amplified by PCR using a primer CYP11A-1F (SEQ ID NO: 19) and a primer CYP11A-2R (SEQ ID NO: 20), and also using KOD plus polymerase (TOYOBO Co., Ltd.). The temperature conditions applied during the PCR were 94° C./3 min, 30 cycles of (94° C./30 sec, 55° C./60 sec, and 72° C./90sec), and 72° C./5 min.
A 1.45-kb CYP11A1 gene fragment amplified as a result of the above-described reaction was purified using QIAquick PCR purification Kit (manufactured by QIAGEN), and it was then digested with Nde I and Spe I. Thereafter, the digest was ligated to Escherichia coli expression vector pT7NS-camAB, using T4 DNA ligase, and Escherichia coli DH5α was then transformed with the obtained expression vector, so as to construct a plasmid pCYP11A-camAB. Subsequently, using T4 DNA ligase, the previously prepared bovine-derived adrenodoxin reductase protein-adrenodoxin gene (adr-adx) fragment was inserted into and ligated to each of the Spe I and Bam HI sites of the above-described plasmid, and Escherichia coli DH5a was then transformed with the obtained plasmid, so as to construct plasmid pCYP11A-ARX. Thereafter, Escherichia coli BL21(DE3) was transformed with the thus constructed plasmid, and the obtained cell strain was named as BL21CYP11. The used adx-adr fragment was amplified by PCR with a plasmid pKARX (Sawada et. al. Eur. J. Biochem. 265, 950-956,1999) as a template, using primer bAdxR-1F (SEQ ID NO: 21) and primer bAdx-2R (SEQ ID NO: 22), and also using KOD plus polymerase (manufactured by TOYOBO Co., Ltd.). The temperature condition applied during the PCR were 94° C./3 min, 25 cycles of (94° C./30 sec, 60° C./30 sec, and 72° C./120sec), and 72° C./5 min.
Each substrate was subjected to the same reaction as that of Example 6, separately, and the reaction solution was then subjected to liquid separation using 1 ml of ethyl acetate. The reaction product and the substrate were extracted, and were then analyzed by HPLC.

[1] = substrate: CC(C)CCC[C@@H](C)[C@H]1CC[C@H]2[C@@H]3CCC4=CC(=O)CC[C@]4(C)[C@H]3CC[C@]12C; test: purified protein, by the assay type; conditions: other: 4-cholesten-3-one 0.1 to 500 μM, pH 7.5, 15° C., 60 minutes, Lineweaver-Burk plot
[2] = strain BP172, same reaction as Example 6

| Molecule | accumulated amount of pregnenolone (CYPSS204A) [mg/L] | added substrate remained (CYPSS204A) [%] | Conversion rate (CYPSS204A) [%] | accumulated amount of pregnenolone (CYP204A1; [2]) [mg/L] | added substrate remained (CYP204A1; [2]) [%] | Conversion rate (CYP204A1) [%] | accumulated amount of pregnenolone (CYP11A; same reaction as Example 6) [mg/L] | added substrate remained (CYP11A; same reaction as Example 6) [%] | Conversion rate (CYP11A) [%] | Km [1] [µM] |
| --- | --- | --- | --- | --- | --- | --- | --- | --- | --- | --- |
| CC(C)CC[C@H](O)[C@@H](C)[C@H]1CC[C@H]2[C@@H]3CC=C4C[C@@H](O)CC[C@]4(C)[C@H]3CC[C@]12C [(22S)-22-hydroxy-cholesterol] | 37.5 | 23.5 | 37.5 | 12.9 | 60.1 | 12.9 | 6.1 | 92.6 | 6.1 | – |
| CC(C)=CCC[C@@H](C)[C@H]1CC[C@@]2(C)C3=C(CC[C@]12C)[C@@]1(C)CC[C@H](O)C(C)(C)[C@@H]1CC3 [Lano, lanosterol] | – | – | 0 | – | – | 0 | – | – | 0 | – |
| CC(C)CC[C@H](O)[C@](C)(O)[C@H]1CC[C@H]2[C@@H]3CCC4=CC(=O)CC[C@]4(C)[C@H]3CC[C@]12C [(20R,22S)-20,22-dihydroxycholest-4-en-3-one] | – | 0.6 | 69.8 | – | – | 41.7 | – | 100 | 0 | – |
| CC(C)CC[C@@H](O)[C@@H](C)[C@H]1CC[C@H]2[C@@H]3CCC4=CC(=O)CC[C@]4(C)[C@H]3CC[C@]12C [(22R)-22-hydroxycholest-4-en-3-one] | – | 2.7 | 42.3 | – | – | 80.9 | – | 99.7 | 0.4 | – |
| B1 | – | – | – | – | – | – | – | – | – | 1.0 |
